In data set [1] the test system is CYP3A4. Also on record: method as in PMID 31756459. The note with it: cited from earlier work.
In data set [2] the target is T1, recombinant human CYP3A4 (Baculosomes) (Homo sapiens, UniProt P08684).
T1 construct: purchased ThermoFisher Scientific Cat. no; 2856
Briefly: Vivid CYP3A4 Red Screening Kit fluorimetric inhibition assay (BOMR substrate). The format is biochemical. The note with it: for Effect on CYP3A4 activity (in words): up to 50 µmol/L; for IC50: Baculosomes, fluorescence, positive control KTZ, mean ± SEM. As for the experimental part: (§1) Flavone, galangin, resokaempferol, myricetin, and gossypetin were purchased from Indofine Chemical Company, Inc. (Hillsborough, NJ, USA). Kaempferol and scutellarein were obtained from Extrasynthese (Genay, France). […] Fisetin was obtained from Biosynth (Staad, Switzerland). […] Dimethyl sulfoxide (DMSO) was obtained from VWR International (Radnor, PA, USA), and acetonitrile was obtained from Merck KGaA (Darmstadt, Germany). The effect on CYP3A4 catalytic performance was evaluated using the Vivid® CYP3A4 Screening Kit (ThermoFischer Scientific, Waltham, MA, USA), following the indications of the manufacturer. This kit assesses how tested compounds affect the rate of fluorescence increase caused by the breakdown of a resorufin-blocked dye substrate by the human CYP3A4 enzyme. The enzyme promoted the cleavage of substrate at two different bonds, both generating a red highly fluorescent dye, in order to minimize spectral interferences caused by other compounds in the reaction medium. […] This setup helped to further circumvent interference from highly fluorescent compounds like NADPH, which are excited at UV wavelengths. […] The last enzyme and its substrate work as NADPH regenerating system since it catalyzes its formation through NADP^+, added subsequently. […] The fluorescence measurements were performed every 30 s for 30 min in a microplate reader with plate shaking and temperature control, 29 °C (Cytation 5, BIO-TEK, Winooski, VT, USA). The percentage of inhibition was calculated based on the reaction initial rates measured from the constant slope values of the fluorescence–time charts. […] The statistical analysis comprised both comparisons by the Student’s t-test for mean % inhibition and one-way analysis of variance (ANOVA) for the comparison between concentrations on the IC50. […] Differences were significant for p < 0.05.

In data set [3] the target is T2, CYP3A4 (Homo sapiens, UniProt P08684).
T2 construct: purchased ThermoFisher Scientific Cat. no; 2856
T2 sequence (P08684 whole entry): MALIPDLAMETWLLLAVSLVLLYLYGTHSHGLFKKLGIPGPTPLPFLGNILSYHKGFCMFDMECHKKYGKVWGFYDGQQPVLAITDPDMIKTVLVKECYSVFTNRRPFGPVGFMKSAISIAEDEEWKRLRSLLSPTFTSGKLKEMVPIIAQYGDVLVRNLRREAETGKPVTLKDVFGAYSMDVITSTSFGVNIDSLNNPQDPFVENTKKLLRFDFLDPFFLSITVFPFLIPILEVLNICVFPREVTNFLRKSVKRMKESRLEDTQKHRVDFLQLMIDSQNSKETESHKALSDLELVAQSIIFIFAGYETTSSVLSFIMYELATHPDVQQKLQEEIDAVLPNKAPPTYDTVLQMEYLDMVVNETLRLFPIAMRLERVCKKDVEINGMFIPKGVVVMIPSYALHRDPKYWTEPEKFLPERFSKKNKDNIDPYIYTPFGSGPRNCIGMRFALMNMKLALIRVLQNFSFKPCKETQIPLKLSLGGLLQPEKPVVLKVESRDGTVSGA
Described as above. The format is biochemical. The note with it: human. Here is the method: as §1

The subject of data set [4] is CYP3A4. The note with it: HLM, cited from earlier work.
Data set [5] relates to CYP3A4. The note with it: substrate BOMCC, enzyme not given, positive control ERYT, fluorescence; cited from earlier work.
The test system of data set [6] is CYP3A4. The note with it: RLM, HPLC, cited from earlier work.
Data set [7] concerns CYP3A4. The note with it: BCS, fluorescence, cited from earlier work.
[8] abbreviates: recombinant human CYP3A4 Baculosomes, pH 8, probe Vivid BOMR substrate, 50 µmol/L compound, BOMR substrate, mean ± SEM, negative = activation, read-out: CYP3A4 Inhibition (%) (50 µmol/L).
[9] abbreviates: substrate TST, positive control KTZ, HPLC-UV.
[10] abbreviates: recombinant enzyme, pH 8, CYP3A4 Inhibition (%) (50 µmol/L).

Each structure is given as a SMILES string. Where “and” joins values, the source holds several entries; their conditions need not be identical. Identical values can stand only once. Like-named read-outs stand apart in the source and are kept apart here.

T1 sequence (P08684 whole entry): as above

As to `O=c1cc(-c2ccccc2)oc2ccccc12` [Flavone], the “Activation of CYP3A4” value in data set [1] was 94.65 ± 7.10%. Moreover, the “Effect on CYP3A4 activity (in words)” value in data set [2] is given as “could act as an activator of the enzyme”. In addition, in data set [3] (setting [8]), the inhibition at 30 min, 50 µmol/L was -179 ± 73%.
Turning to `O=c1c(O)c(-c2ccccc2)oc2cc(O)cc(O)c12` [Galangin], in data set [3] (setting [8]), the inhibition at 30 min, 50 µmol/L was determined as 4 ± 9%.
On to `O=c1c(O)c(-c2ccc(O)cc2)oc2c(O)c(O)cc(O)c12` [Herbacetin], for which the IC50 in data set [4] (UPLC-MS/MS) was less than 10 µM; in data set [2] (BOMR substrate, read-out: IC50), 32 µM and 31.5 µM.
On to `O=c1cc(-c2ccc(O)c(O)c2)oc2cc(O)cc(O)c12` [Luteolin], for which the IC50 in data set [4] (setting [9]) was 4.62 ± 1.26 µM; in data set [4] (substrate TST, positive control KTZ, RP-HPLC), 6.8 µM; in data set [5] it was 57.1 ± 16.1 µM; in data set [2] (BOMR substrate, read-out: IC50), 31 µM and 31.2 µM. In data set [3] (setting [8]), the inhibition at 30 min, 50 µmol/L was not below 50%.
`O=c1c(O)c(-c2ccc(O)c(O)c2)oc2cc(O)ccc12` [Fisetin]: the inhibition at 30 min, 50 µmol/L in data set [3] (setting [8]) was determined as 30 ± 13%.
For the molecule `O=c1cc(-c2ccccc2)oc2cc(O)c(O)c(O)c12` [Baicalein], the IC50 in data set [4] (different substrates, fluorescence) was 7.56 to 26.4 µM; in data set [4] (setting [9]), 9.6 ± 1.18 µM; in data set [6] (substrate TST), 12 µM; in data set [7] (substrate BFC, positive control KTZ), 9.2 µM; in data set [2] (IC50, BOMR substrate), 15 ± 5 µM.
Consider `O=c1c(O)c(-c2ccc(O)cc2)oc2cc(O)ccc12` [Resokaempferol], for which the inhibition at 30 min, 50 µmol/L in data set [3] (setting [8]) came out at 38 ± 7%.
With `O=c1c(O)c(-c2ccc(O)c(O)c2)oc2c(O)c(O)cc(O)c12` [Gossypetin], the IC50 in data set [2] (IC50, BOMR substrate) was 40 µM and 40.1 µM. Besides, in data set [3] (setting [10]), the inhibition at 30 min, 50 µmol/L was not below 50%.
With `O=c1cc(-c2ccc(O)cc2)oc2cc(O)cc(O)c12` [Apigenin], the inhibition at 30 min, 50 µmol/L in data set [3] (setting [10]) turned out to be 23 ± 8%.
Take `O=c1c(O)c(-c2ccc(O)cc2)oc2cc(O)cc(O)c12` [Kaempferol]: the inhibition at 30 min, 50 µmol/L in data set [3] (setting [8]) came to 24 ± 8%.
With `O=C1C[C@@H](c2ccc(O)cc2)Oc2cc(O)cc(O)c21` [Naringenin], the “Effect on CYP3A4 activity (in words)” value in data set [2] was “no inhibitory effect was noticed”. For the same molecule, in data set [3] (setting [8]), the inhibition at 30 min, 50 µmol/L was -11 ± 5%.
Take `O=c1c(O)c(-c2cc(O)c(O)c(O)c2)oc2cc(O)cc(O)c12` [Myricetin]: in data set [3] (setting [10]), the inhibition at 30 min, 50 µmol/L was 32 ± 12%.
On to `O=c1c(O)c(-c2ccc(O)c(O)c2)oc2cc(O)cc(O)c12` [Quercetin], for which the IC50 was […] in data set [6] (substrate RPG, positive control KTZ) and […] in data set [7] (substrate BOMCC, positive control Erythro). Besides, in data set [3] (setting [8]), the inhibition at 30 min, 50 µmol/L was not below 50%.
With `O=c1cc(-c2ccccc2)oc2cc(O)cc(O)c12` [Chrysin], the inhibition at 30 min, 50 µmol/L in data set [3] (setting [10]) was determined as 28 ± 17%.
Turning to `O=c1cc(-c2ccc(O)cc2)oc2cc(O)c(O)c(O)c12` [Scutellarein], in data set [2] (BOMR substrate, read-out: IC50), the IC50 is 19 µM and 19.1 µM.
Consider `O=c1c(O)c(-c2ccc(O)cc2O)oc2cc(O)cc(O)c12` [Morin], for which, in data set [3] (setting [8]), the inhibition at 30 min, 50 µmol/L worked out at 38 ± 11%.

Values taken from paper PMC11940229, “How Plant Polyhydroxy Flavonoids Can Hinder the Metabolism of Cytochrome 3A4” (Biomedicines, 2025).
